Laboratory results reported in US9179674B2, “Macrocyclic picolinamide compounds with fungicidal activity” (DOW AGROSCIENCES LLC, priority 2013, dated 2015).

How the values were obtained:
Rhyncosporium secalis = test: Barley Scald fungicidal activity (RHYNSE); type: in vivo; settings: Hordeum vulgare, 24 h, 1 Day Protectant, read-out: Disease Control RHYNSE 1DP
Experimental: Technical grades of materials were dissolved in acetone, which were then mixed with nine volumes of water containing 110 ppm Triton X-100. The fungicide solutions were applied onto wheat seedlings using an automated booth sprayer to run-off. All sprayed plants were allowed to air dry prior to further handling. All fungicides were evaluated using the aforementioned method for their activity vs. all target diseases. Wheat leaf blotch and brown rust activity were also evaluated using track spray applications, in which case the fungicides were formulated as EC formulations, containing 0.1% Trycol 5941 in the spray solutions. Wheat plants (variety Yuma) were grown from seed in a greenhouse in 50% mineral soil/50% soil-less Metro mix until the first leaf was fully emerged, with 7-10 seedlings per pot. These plants were inoculated with an aqueous spore suspension of Septoria tritici either prior to or after fungicide treatments. After inoculation the plants were kept in 100% relative humidity (one day in a dark dew chamber followed by two to three days in a lighted dew chamber at 20° C.) to permit spores to germinate and infect the leaf. The plants were then transferred to a greenhouse set at 20° C. for disease to develop. When disease symptoms were fully expressed on the 1st leaves of untreated plants, infection levels were assessed on a scale of 0 to 100 percent disease severity. Percent disease control was calculated using the ratio of disease severity on treated plants relative to untreated plants. Evaluation of Fungicidal Activity: Barley Scald (Rhyncosporium secalis; Bayer Code […]) Barley seedlings (variety Harrington) were propagated in soil-less Metro mix, with each pot having 8 to 12 plants, and used in the test when first leaf was fully emerged. Test plants were inoculated by an aqueous spore suspension of Rhyncosporium secalis 24 hr after fungicide treatments. After inoculation the plants were kept in a dew room at 20° C. with 100% relative humidity for 48 hr. The plants were then transferred to a greenhouse set at 20° C. for disease to develop. Fungicide formulation, application and disease assessment on the sprayed leaves followed the procedures as described in the Example A.

[1] = test system: Magnaporthe grisea; Anamorph: Pyricularia oryzae; test: whole plant or invertebrate; type: in vivo; settings: 24 h, read-out: Disease Control PYRIOR 1DP
Leptosphaeria nodorum = test: Wheat Glume Blotch fungicidal activity (LEPTNO); type: in vivo; settings: 100 ppm, 1 Day Protectant
Experimental: Technical grades of materials were dissolved in acetone, which were then mixed with nine volumes of water containing 110 ppm Triton X-100. The fungicide solutions were applied onto wheat seedlings using an automated booth sprayer to run-off. All sprayed plants were allowed to air dry prior to further handling. All fungicides were evaluated using the aforementioned method for their activity vs. all target diseases. Wheat leaf blotch and brown rust activity were also evaluated using track spray applications, in which case the fungicides were formulated as EC formulations, containing 0.1% Trycol 5941 in the spray solutions. Wheat plants (variety Yuma) were grown from seed in a greenhouse in 50% mineral soil/50% soil-less Metro mix until the first leaf was fully emerged, with 7-10 seedlings per pot. These plants were inoculated with an aqueous spore suspension of Septoria tritici either prior to or after fungicide treatments. After inoculation the plants were kept in 100% relative humidity (one day in a dark dew chamber followed by two to three days in a lighted dew chamber at 20° C.) to permit spores to germinate and infect the leaf. The plants were then transferred to a greenhouse set at 20° C. for disease to develop. When disease symptoms were fully expressed on the 1st leaves of untreated plants, infection levels were assessed on a scale of 0 to 100 percent disease severity. Percent disease control was calculated using the ratio of disease severity on treated plants relative to untreated plants. Evaluation of Fungicidal Activity: Wheat Glume Blotch (Leptosphaeria nodorum; Bayer code […]) Wheat plants (variety Yuma) were grown from seed in a greenhouse in 50% mineral soil/50% soil-less Metro mix until the first leaf was fully emerged, with 7-10 seedlings per pot. These plants were inoculated with an aqueous spore suspension of Leptosphaeria nodorum 24 hr after fungicide treatments. After inoculation the plants were kept in 100% relative humidity (one day in a dark dew chamber followed by two days in a lighted dew chamber at 20° C.) to permit spores to germinate and infect the leaf. The plants were then transferred to a greenhouse set at 20° C. for disease to develop. Fungicide formulation, application and disease assessment followed the procedures as described in the Example A.

[2] = test system: Blumeria graminis f. sp. tritici; test: Wheat Powdery Mildew fungicidal activity (ERYSGT); type: in vivo; settings: 100 ppm, 1 Day Protectant
Experimental: Technical grades of materials were dissolved in acetone, which were then mixed with nine volumes of water containing 110 ppm Triton X-100. The fungicide solutions were applied onto wheat seedlings using an automated booth sprayer to run-off. All sprayed plants were allowed to air dry prior to further handling. All fungicides were evaluated using the aforementioned method for their activity vs. all target diseases. Wheat leaf blotch and brown rust activity were also evaluated using track spray applications, in which case the fungicides were formulated as EC formulations, containing 0.1% Trycol 5941 in the spray solutions. Wheat plants (variety Yuma) were grown from seed in a greenhouse in 50% mineral soil/50% soil-less Metro mix until the first leaf was fully emerged, with 7-10 seedlings per pot. These plants were inoculated with an aqueous spore suspension of Septoria tritici either prior to or after fungicide treatments. After inoculation the plants were kept in 100% relative humidity (one day in a dark dew chamber followed by two to three days in a lighted dew chamber at 20° C.) to permit spores to germinate and infect the leaf. The plants were then transferred to a greenhouse set at 20° C. for disease to develop. When disease symptoms were fully expressed on the 1st leaves of untreated plants, infection levels were assessed on a scale of 0 to 100 percent disease severity. Percent disease control was calculated using the ratio of disease severity on treated plants relative to untreated plants. Evaluation of Fungicidal Activity: Wheat Powdery Mildew (Blumeria graminis f. sp. tritici; Synonym: Erysiphe graminis f. sp. tritici; Bayer Code […]) Wheat plants (variety Yuma) were grown from seed in a greenhouse in 50% mineral soil/50% soil-less Metro mix until the first leaf was fully emerged, with 7-10 seedlings per pot. These plants were inoculated by dusting with infected stock plants 24 hr after fungicide treatments. After inoculation the plants were kept in a greenhouse set at 20° C. for disease to develop. […]

Phakopsora pachyrhizi = test: Asian Soybean Rust fungicidal activity (PHAKPA); type: in vivo; settings: 25 ppm; for Disease Control PHAKPA 1DP: 1 Day Protectant; for Disease Control PHAKPA 3DC: 3 Day Curative
Experimental: Evaluation of Fungicidal Activity: Asian Soybean Rust (Phakopsora pachyrhizi; Bayer Code PHAKPA)
Technical grades of materials were dissolved in acetone, which were then mixed with nine volumes of water containing 0.011% Tween 20. The fungicide solutions were applied onto soybean seedlings using an automated booth sprayer to run-off. All sprayed plants were allowed to air dry prior to further handling.
Soybean plants (variety Williams 82) were grown in soil-less Metro mix, with one plant per pot. Two weeks old seedlings were used for testing. Plants were inoculated either 3 days prior to or 1 day after fungicide treatments. Plants were incubated for 24 h in a dark dew room at 22° C. and 100% RH then transferred to a growth room at 23° C. for disease to develop. Disease severity was assessed on the sprayed leaves.

Structure (SMILES)	pest or weed control at 100 ppm (Rhyncosporium secalis) [%]	pest or weed control at 100 ppm [1] [%]	melting point [°C]	Disease Control LEPTNO 1DP (Leptosphaeria nodorum)	Disease Control ERYSGT 1DP [2]	Disease Control PHAKPA 1DP (Phakopsora pachyrhizi)	Disease Control PHAKPA 3DC (Phakopsora pachyrhizi)
COc1ccnc(C(=O)N[C@H]2COC[C@H](Cc3ccc(Cl)cc3Cl)[C@@H](OC(=O)C(C)C)[C@H](C)OC2=O)c1OC(C)=O [Compound F73]	80 to 100	80 to 100	93 to 97	–	–	–	–
COc1ccnc(C(=O)N[C@H]2COC[C@H](Cc3ccc(C)cc3)[C@@H](OCC(C)C)[C@H](C)OC2=O)c1OC(C)=O [Compound F80]	–	80 to 100	–	A (80-100)	A (80-100)	–	–
COc1ccnc(C(=O)N[C@H]2COC[C@H](CCc3ccccc3)[C@@H](OCC(C)C)[C@H](C)OC2=O)c1OCOC(C)=O [Compound F82]	80 to 100	80 to 100	–	–	–	–	–
COc1ccnc(C(=O)N[C@H]2COC[C@H](Cc3cccc4ccccc34)[C@@H](OC(=O)C(C)C)[C@H](C)OC2=O)c1OCOC(C)=O [Compound F83, (3S,6S,7R,8S)-3-(3-(acetoxymethoxy)-4-methoxypicolin-amido)-6-methyl-8-(naphthalen-1-ylmethyl)-4-oxo-1,5-dioxonan-7-yl isobutyrate]	80 to 100	80 to 100	58 to 64	A (80-100)	–	–	–
COc1ccnc(C(=O)N[C@H]2COC[C@H](Cc3ccc(F)cc3)[C@@H](OCC(C)C)[C@H](C)OC2=O)c1OCOC(C)=O [Compound F96]	–	80 to 100	–	A (80-100)	A (80-100)	–	–
COc1ccnc(C(=O)N[C@H]2COC[C@H](CC(F)(F)F)[C@@H](OC3CCCC3)[C@H](C)OC2=O)c1OCOC(C)=O [Compound F105]	80 to 100	80 to 100	–	–	–	–	–
COc1ccnc(C(=O)N[C@H]2COC[C@H](CCC(C)C)[C@@H](OCCCC(F)(F)F)[C@H](C)OC2=O)c1OCOC(C)=O [Compound F107]	80 to 100	80 to 100	–	–	–	A (80-100)	B (More than 0-Less than 80)
COc1ccnc(C(=O)N[C@H]2COC[C@H](CCC(C)C)[C@@H](OC(=O)C3CC3)[C@H](C)OC2=O)c1OCOC(C)=O [Compound F108]	80 to 100	80 to 100	–	–	–	A (80-100)	A (80-100)
COc1ccnc(C(=O)N[C@H]2COC[C@H](Cc3ccc(Cl)cc3Cl)[C@@H](OC(=O)C(C)C)[C@H](C)OC2=O)c1OCOC(C)=O [Compound F110]	80 to 100	80 to 100	62 to 66	–	–	–	–
COc1ccnc(C(=O)N[C@H]2COC[C@H](CC3CCCC3)[C@@H](OC(=O)C(C)C)[C@H](C)OC2=O)c1OCOC(C)=O [Compound F114]	80 to 100	80 to 100	41 to 45	–	–	A (80-100)	B (More than 0-Less than 80)
COc1ccnc(C(=O)N[C@H]2COC[C@H](Cc3ccc(C)cc3)[C@@H](OCC(C)C)[C@H](C)OC2=O)c1OCOC(C)=O [Compound F117]	–	80 to 100	–	A (80-100)	A (80-100)	–	–
CCCCCO[C@@H]1[C@@H](Cc2ccc(Cl)cc2Cl)COC[C@H](NC(=O)c2nccc(OC)c2OCOC(=O)COCC)C(=O)O[C@H]1C [Compound F122]	80 to 100	–	–	A (80-100)	–	B (More than 0-Less than 80)	–
CCCCCO[C@@H]1[C@@H](Cc2ccc(Cl)cc2Cl)COC[C@H](NC(=O)c2nccc(OC)c2OC(=O)CCOC)C(=O)O[C@H]1C [Compound F123]	80 to 100	–	96 to 99	A (80-100)	–	B (More than 0-Less than 80)	–
